Measurements from US20250213555A1, “SUBSTITUTED TETRAHYDROFURAN ANALOGS AS MODULATORS OF SODIUM CHANNELS” (VERTEX PHARMACEUTICALS INCORPORATED, priority 2021, published 2025).
pIC50: −log10 of the molar value.

Target: human Nav 1.8 (Homo sapiens, UniProt Q9Y5Y9)
Assay: E-VIPR assay detecting and measuring Nav inhibition properties
Assay type: cell-based
Conditions: HEK cells expressing a truncated form of human Nav 1.8; compound numbers without "*" (not marked as run in the presence of human serum); read-out: measured IC50 value in the E-VIPR Assay
Outline: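 Nav inhibition was read by E-VIPR: cells were electrically stimulated while coumarin/oxonol FRET emissions were recorded. Cells were HEK expressing a truncated human Nav 1.8 and co-transduced with KIR2.1, and were assayed in 25% final human serum.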

Sequence of human Nav 1.8 (Q9Y5Y9 126-399 limits assumed): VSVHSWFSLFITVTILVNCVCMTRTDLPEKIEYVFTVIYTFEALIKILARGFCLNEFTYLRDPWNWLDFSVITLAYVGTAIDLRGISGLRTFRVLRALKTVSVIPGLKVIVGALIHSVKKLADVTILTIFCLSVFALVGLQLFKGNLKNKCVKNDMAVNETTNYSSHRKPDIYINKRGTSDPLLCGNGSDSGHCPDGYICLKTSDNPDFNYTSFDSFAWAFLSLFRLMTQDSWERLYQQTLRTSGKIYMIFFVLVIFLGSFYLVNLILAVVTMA
Sequence of human Nav 1.8 (Q9Y5Y9 660-890 limits assumed): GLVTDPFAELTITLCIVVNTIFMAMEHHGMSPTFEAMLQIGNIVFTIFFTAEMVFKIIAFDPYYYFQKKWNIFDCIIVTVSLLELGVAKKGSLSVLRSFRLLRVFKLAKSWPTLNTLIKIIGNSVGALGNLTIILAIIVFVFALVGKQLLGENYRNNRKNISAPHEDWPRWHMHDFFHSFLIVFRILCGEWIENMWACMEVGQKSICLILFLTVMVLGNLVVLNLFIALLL
Sequence of human Nav 1.8 (Q9Y5Y9 1148-1722 limits assumed): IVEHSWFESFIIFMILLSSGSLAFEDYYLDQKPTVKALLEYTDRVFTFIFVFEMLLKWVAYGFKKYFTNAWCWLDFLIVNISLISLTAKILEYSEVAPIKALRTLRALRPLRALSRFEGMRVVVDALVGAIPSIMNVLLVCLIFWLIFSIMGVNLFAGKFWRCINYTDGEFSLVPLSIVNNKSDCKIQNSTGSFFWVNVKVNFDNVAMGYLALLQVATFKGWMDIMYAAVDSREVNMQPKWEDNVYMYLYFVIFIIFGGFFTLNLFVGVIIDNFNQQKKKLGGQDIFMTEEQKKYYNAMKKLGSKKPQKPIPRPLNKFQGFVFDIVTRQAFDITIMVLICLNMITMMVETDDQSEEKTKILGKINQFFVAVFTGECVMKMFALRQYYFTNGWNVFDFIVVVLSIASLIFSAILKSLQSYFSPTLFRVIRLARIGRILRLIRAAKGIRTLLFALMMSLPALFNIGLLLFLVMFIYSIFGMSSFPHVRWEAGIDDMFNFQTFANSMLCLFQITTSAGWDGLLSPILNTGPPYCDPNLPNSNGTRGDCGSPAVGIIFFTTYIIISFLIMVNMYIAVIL

| SMILES | pIC50 |
| --- | --- |
| C[C@H]1[C@@H](c2ccc(F)c(F)c2OC2COC2)[C@H](C(=O)Nc2ccnc(C(N)=O)c2)O[C@@]1(C)C(F)(F)F [Compound 58, 4-((2R,3S,4S,5R)-3-(3,4-difluoro-2-(oxetan-3-yloxy)phenyl)-4,5-dimethyl-5-(trifluoromethyl)tetrahydrofuran-2-carboxamido) picolinamide] | > 8.00 |
| C[C@H]1[C@@H](c2ccc(F)c(F)c2OCc2nccn2C)[C@H](C(=O)Nc2ccnc(C(N)=O)c2)O[C@@]1(C)C(F)(F)F [Compound 61, 4-((2R,3S,4S,5R)-3-(3,4-difluoro-2-((1-methyl-1H-imidazol-2-yl)methoxy)phenyl)-4,5-dimethyl-5-(trifluoromethyl)tetrahydrofuran-2-carboxamido)picolinamide] | > 8.00 |
| C[C@H]1[C@@H](c2ccc(F)c(F)c2OCCCN2CCOCC2)[C@H](C(=O)Nc2ccnc(C(N)=O)c2)O[C@@]1(C)C(F)(F)F [Compound 62, 4-((2R,3S,4S,5R)-3-(3,4-difluoro-2-(3-morpholinopropoxy)phenyl)-4,5-dimethyl-5-(trifluoromethyl)tetrahydrofuran-2-carboxamido)picolinamide] | > 8.00 |
| C[C@H]1[C@@H](c2ccc(F)c(F)c2OC2CCOCC2)[C@H](C(=O)Nc2ccnc(C(N)=O)c2)O[C@@]1(C)C(F)(F)F [Compound 65, 4-((2R,3S,4S,5R)-3-(3,4-difluoro-2-((tetrahydro-2H-pyran-4-yl)oxy)phenyl)-4,5-dimethyl-5-(trifluoromethyl)tetrahydrofuran-2-carboxamido)picolinamide] | > 8.00 |
| CNC(=O)c1cc(NC(=O)[C@@H]2O[C@@](C)(C(F)(F)F)[C@@H](C)[C@H]2c2ccc(F)c(F)c2OCC2COC2)ccn1 [Compound 66] | > 8.00 |
| C[C@H]1[C@@H](c2ccc(F)c(F)c2OCC2COC2)[C@H](C(=O)Nc2ccnc(C(N)=O)c2)O[C@@]1(C)C(F)(F)F [Compound 70, 4-((2R,3S,4S,5R)-3-(3,4-difluoro-2-(oxetan-3-ylmethoxy)phenyl)-4,5-dimethyl-5-(trifluoromethyl)tetrahydrofuran-2-carboxamido)picolinamide] | > 8.00 |
| C[C@H]1[C@@H](c2ccc(F)c(F)c2OCC(C)(C)CO)[C@H](C(=O)Nc2ccnc(C(N)=O)c2)O[C@@]1(C)C(F)(F)F [Compound 71, 4-((2R,3S,4S,5R)-3-(3,4-difluoro-2-(3-hydroxy-2,2-dimethylpropoxy)phenyl)-4,5-dimethyl-5-(trifluoromethyl)tetrahydrofuran-2-carboxamido)picolinamide] | 6.00 to 7.00 |
| C[C@H]1[C@@H](c2ccc(F)c(F)c2OCc2cnn(C)c2)[C@H](C(=O)Nc2ccnc(C(N)=O)c2)O[C@@]1(C)C(F)(F)F [Compound 73, 4-((2R,3S,4S,5R)-3-(3,4-difluoro-2-((1-methyl-1H-pyrazol-4-yl)methoxy)phenyl)-4,5-dimethyl-5-(trifluoromethyl)tetrahydrofuran-2-carboxamido)picolinamide] | > 8.00 |
| C[C@H]1[C@@H](c2ccc(F)c(F)c2OCCC(C)(C)C#N)[C@H](C(=O)Nc2ccnc(C(N)=O)c2)O[C@@]1(C)C(F)(F)F [Compound 74, 4-((2R,3S,4S,5R)-3-(2-(3-cyano-3-methylbutoxy)-3,4-difluorophenyl)-4,5-dimethyl-5-(trifluoromethyl)tetrahydrofuran-2-carboxamido)picolinamide] | 7.00 to 8.00 |
| C=C(COc1c([C@H]2[C@H](C(=O)Nc3ccnc(C(N)=O)c3)O[C@@](C)(C(F)(F)F)[C@H]2C)ccc(F)c1F)C(F)(F)F [Compound 75, 4-((2R,3S,4S,5R)-3-(3,4-difluoro-2-((2-(trifluoromethyl)allyl)oxy)phenyl)-4,5-dimethyl-5-(trifluoromethyl)tetrahydrofuran-2-carboxamido)picolinamide] | > 8.00 |
| COCC(COc1c([C@H]2[C@H](C(=O)Nc3ccnc(C(N)=O)c3)O[C@@](C)(C(F)(F)F)[C@H]2C)ccc(F)c1F)OC (stereo partly drawn) [Compound 78, 4-((2R,3S,4S,5R)-3-(2-(2,3-dimethoxypropoxy)-3,4-difluorophenyl)-4,5-dimethyl-5-(trifluoromethyl)tetrahydrofuran-2-carboxamido)picolinamide] | > 8.00 |
| CC(=O)COc1c([C@H]2[C@H](C(=O)Nc3ccnc(C(N)=O)c3)O[C@@](C)(C(F)(F)F)[C@H]2C)ccc(F)c1F [Compound 79, 4-((2R,3S,4S,5R)-3-(3,4-difluoro-2-(2-oxopropoxy)phenyl)-4,5-dimethyl-5-(trifluoromethyl)tetrahydrofuran-2-carboxamido)picolinamide] | 7.00 to 8.00 |
| C[C@H]1[C@@H](c2ccc(F)c(F)c2OC2CC(C#N)C2)[C@H](C(=O)Nc2ccnc(C(N)=O)c2)O[C@@]1(C)C(F)(F)F (stereo partly drawn) [Compound 80, 4-((2R,3S,4S,5R)-3-(2-(3-cyanocyclobutoxy)-3,4-difluorophenyl)-4,5-dimethyl-5-(trifluoromethyl)tetrahydrofuran-2-carboxamido)picolinamide] | > 8.00 |
| C[C@H]1[C@@H](c2ccc(F)c(F)c2OCc2cc[nH]n2)[C@H](C(=O)Nc2ccnc(C(N)=O)c2)O[C@@]1(C)C(F)(F)F [Compound 83, 4-((2R,3S,4S,5R)-3-(2-((1H-pyrazol-3-yl)methoxy)-3,4-difluorophenyl)-4,5-dimethyl-5-(trifluoromethyl)tetrahydrofuran-2-carboxamido)picolinamide] | > 8.00 |
| CNC(=O)c1cc(NC(=O)[C@@H]2O[C@@](C)(C(F)(F)F)[C@@H](C)[C@H]2c2ccc(F)c(F)c2OCCO)cc[n+]1[O-] [Compound 84, 4-((2R,3S,4S,5R)-3-(3,4-difluoro-2-(2-hydroxyethoxy)phenyl)-4,5-dimethyl-5-(trifluoromethyl)tetrahydrofuran-2-carboxamido)-2-(methylcarbamoyl)pyridine 1-oxide] | 7.00 to 8.00 |
| C[C@H]1[C@@H](c2ccc(F)c(F)c2OCCc2cn(C)cn2)[C@H](C(=O)Nc2ccnc(C(N)=O)c2)O[C@@]1(C)C(F)(F)F [Compound 85, 4-((2R,3S,4S,5R)-3-(3,4-difluoro-2-(2-(1-methyl-1H-imidazol-4-yl)ethoxy)phenyl)-4,5-dimethyl-5-(trifluoromethyl)tetrahydrofuran-2-carboxamido) picolinamide] | > 8.00 |

Continued, values first:

| pIC50 | SMILES |
| --- | --- |
| > 8.00 | C[C@H]1[C@@H](c2ccc(F)c(F)c2OCCN2CC3(CCO3)C2)[C@H](C(=O)Nc2ccnc(C(N)=O)c2)O[C@@]1(C)C(F)(F)F [Compound 57, 4-((2R,3S,4S,5R)-3-(2-(2-(1-oxa-6-azaspiro[3.3]heptan-6-yl)ethoxy)-3,4-difluorophenyl)-4,5-dimethyl-5-(trifluoromethyl)tetrahydrofuran-2-carboxamido)picolinamide] |
| 7.00 to 8.00 | C[C@H]1[C@@H](c2ccc(F)c(F)c2OCC2(C)COC2)[C@H](C(=O)Nc2ccnc(C(N)=O)c2)O[C@@]1(C)C(F)(F)F [Compound 63, 4-((2R,3S,4S,5R)-3-(3,4-difluoro-2-((3-methyloxetan-3-yl)methoxy)phenyl)-4,5-dimethyl-5-(trifluoromethyl)tetrahydrofuran-2-carboxamido)picolinamide] |
| > 8.00 | C[C@H]1[C@@H](c2ccc(F)c(F)c2OCC2(F)COC2)[C@H](C(=O)Nc2ccnc(C(N)=O)c2)O[C@@]1(C)C(F)(F)F [Compound 64, 4-((2R,3S,4S,5R)-3-(3,4-difluoro-2-((3-fluorooxetan-3-yl)methoxy)phenyl)-4,5-dimethyl-5-(trifluoromethyl)tetrahydrofuran-2-carboxamido)picolinamide] |
| > 8.00 | C[C@H]1[C@@H](c2ccc(F)c(F)c2OCC#N)[C@H](C(=O)Nc2ccnc(C(N)=O)c2)O[C@@]1(C)C(F)(F)F [Compound 69, 4-((2R,3S,4S,5R)-3-(2-(cyanomethoxy)-3,4-difluorophenyl)-4,5-dimethyl-5-(trifluoromethyl)tetrahydrofuran-2-carboxamido)picolinamide] |
| > 8.00 | C[C@H]1[C@@H](c2ccc(F)c(F)c2OCCCO)[C@H](C(=O)Nc2ccnc(C(N)=O)c2)O[C@@]1(C)C(F)(F)F [Compound 72, 4-((2R,3S,4S,5R)-3-(3,4-difluoro-2-(3-hydroxypropoxy)phenyl)-4,5-dimethyl-5-(trifluoromethyl)tetrahydrofuran-2-carboxamido)picolinamide] |
| > 8.00 | C[C@H]1[C@@H](c2ccc(F)c(F)c2OCCCC#N)[C@H](C(=O)Nc2ccnc(C(N)=O)c2)O[C@@]1(C)C(F)(F)F [Compound 76, 4-((2R,3S,4S,5R)-3-(2-(3-cyanopropoxy)-3,4-difluorophenyl)-4,5-dimethyl-5-(trifluoromethyl)tetrahydrofuran-2-carboxamido)picolinamide] |
| > 8.00 | C[C@H]1[C@@H](c2ccc(F)c(F)c2OCCC2(C#N)CC2)[C@H](C(=O)Nc2ccnc(C(N)=O)c2)O[C@@]1(C)C(F)(F)F [Compound 77, 4-((2R,3S,4S,5R)-3-(2-(2-(1-cyanocyclopropyl)ethoxy)-3,4-difluorophenyl)-4,5-dimethyl-5-(trifluoromethyl)tetrahydrofuran-2-carboxamido)picolinamide] |
| > 8.00 | C[C@@H](CO)COc1c([C@H]2[C@H](C(=O)Nc3ccnc(C(N)=O)c3)O[C@@](C)(C(F)(F)F)[C@H]2C)ccc(F)c1F [Compound 81, 4-((2R,3S,4S,5R)-3-(3,4-difluoro-2-((S)-3-hydroxy-2-methylpropoxy)phenyl)-4,5-dimethyl-5-(trifluoromethyl)tetrahydrofuran-2-carboxamido)picolinamide] |
| > 8.00 | C[C@H](CO)COc1c([C@H]2[C@H](C(=O)Nc3ccnc(C(N)=O)c3)O[C@@](C)(C(F)(F)F)[C@H]2C)ccc(F)c1F [Compound 82, 4-((2R,3S,4S,5R)-3-(3,4-difluoro-2-((R)-3-hydroxy-2-methylpropoxy)phenyl)-4,5-dimethyl-5-(trifluoromethyl)tetrahydrofuran-2-carboxamido)picolinamide] |
